Assay results taken from ChEMBL document CHEMBL3885861, “Open TG-GATES”.

Species: Rattus norvegicus
Assay: Open TG-GATES - Regimen: Single
Format: toxicity, organism-based, Sprague-Dawley
Set-up: regimen Single, gender Male, age 6 weeks
Conditions: in vivo, po, 100 mg/kg, route gavage, dose level Low; for ALP / ALT / AST / BUN / CRE / Ca / Cl / DBIL / GLC / IP / K / LDH / Na / PL / RALB / TBIL / TC / TG / TP / gamma-GTP: tissue Plasma

O=C(O)c1cccnc1 [NIACIN]
Bas (3 h, tissue Blood): 0%
Eos (3 h, tissue Blood): 1%
Fbg (3 h, tissue Blood): 311 mg/dL
Hb (3 h, tissue Blood): 13.6 g/dL
Ht (3 h, tissue Blood): 40.7%
Lym (3 h, tissue Blood): 78.4%
MCHC (3 h, tissue Blood): 33.4%
MCV (3 h, tissue Blood): 65.5 fL
Mono (3 h, tissue Blood): 2.6%
Neu (3 h, tissue Blood): 16.6%
PT (3 h, tissue Blood): 16.2 s
Plat (3 h, tissue Blood): 118.2 x10_4/uL
RBC (3 h, tissue Blood): 621.4 x10_4/ul
Ret (3 h, tissue Blood): 8.2%
WBC (3 h, tissue Blood): 107.6 x10_2/uL
ALP (3 h): 1552.4 IU/L
ALT (3 h): 42.2 IU/L
AST (3 h): 79.8 IU/L
BUN (3 h): 13.6 mg/dL
CRE (3 h): 0.2 mg/dL
Ca (3 h): 10.8 mg/dL
Cl (3 h): 105.4 meq/L
DBIL (3 h): 0 mg/dL
GLC (3 h): 183 mg/dL
IP (3 h): 8.7 mg/dL
K (3 h): 3.9 meq/L
LDH (3 h): 196.8 IU/L
Na (3 h): 141 meq/L
PL (3 h): 118.4 mg/dL
RALB (3 h): 3 g/dL
TBIL (3 h): 0.008 mg/dL
TC (3 h): 71 mg/dL
TG (3 h): 27.8 mg/dL
TP (3 h): 5.6 g/dL
gamma-GTP (3 h): 1.4 IU/L
APTT (6 h, tissue Blood): 22.5 s
Bas (6 h, tissue Blood): 0%
Eos (6 h, tissue Blood): 1%
Fbg (6 h, tissue Blood): 314 mg/dL
Hb (6 h, tissue Blood): 13.4 g/dL
Ht (6 h, tissue Blood): 40%
Lym (6 h, tissue Blood): 78.4%
MCHC (6 h, tissue Blood): 33.4%
Mono (6 h, tissue Blood): 3.4%
Neu (6 h, tissue Blood): 16.2%
PT (6 h, tissue Blood): 16.5 s
Plat (6 h, tissue Blood): 119.1 x10_4/uL
RBC (6 h, tissue Blood): 626.8 x10_4/ul
Ret (6 h, tissue Blood): 8%
WBC (6 h, tissue Blood): 87.9 x10_2/uL
ALP (6 h): 1431.4 IU/L
ALT (6 h): 38.8 IU/L
AST (6 h): 69.8 IU/L
BUN (6 h): 12.4 mg/dL
CRE (6 h): 0.2 mg/dL
Ca (6 h): 10.9 mg/dL
Cl (6 h): 105 meq/L
DBIL (6 h): 0.002 mg/dL
GLC (6 h): 186 mg/dL
IP (6 h): 8.9 mg/dL
K (6 h): 3.8 meq/L
LDH (6 h): 156.8 IU/L
Na (6 h): 139.8 meq/L
PL (6 h): 115 mg/dL
RALB (6 h): 3 g/dL
TBIL (6 h): 0.008 mg/dL
TC (6 h): 64.4 mg/dL
TG (6 h): 37.2 mg/dL
TP (6 h): 5.5 g/dL
gamma-GTP (6 h): 1.6 IU/L
Bas (9 h, tissue Blood): 0%
Eos (9 h, tissue Blood): 0.8%
Fbg (9 h, tissue Blood): 305.4 mg/dL
Hb (9 h, tissue Blood): 13.5 g/dL
Ht (9 h, tissue Blood): 40.6%
Lym (9 h, tissue Blood): 81.6%
MCHC (9 h, tissue Blood): 33.3%
MCV (9 h, tissue Blood): 65.6 fL
Mono (9 h, tissue Blood): 2%
Neu (9 h, tissue Blood): 15.2%
PT (9 h, tissue Blood): 15.6 s
Plat (9 h, tissue Blood): 126.3 x10_4/uL
RBC (9 h, tissue Blood): 618.6 x10_4/ul
Ret (9 h, tissue Blood): 8.4%
WBC (9 h, tissue Blood): 88.6 x10_2/uL
ALP (9 h): 1314.4 IU/L
ALT (9 h): 38.8 IU/L
AST (9 h): 70.4 IU/L
CRE (9 h): 0.2 mg/dL
Ca (9 h): 10.8 mg/dL
Cl (9 h): 105.4 meq/L
DBIL (9 h): 0.002 mg/dL
GLC (9 h): 182.8 mg/dL
IP (9 h): 8.9 mg/dL
K (9 h): 4.1 meq/L
LDH (9 h): 161.4 IU/L
Na (9 h): 140.6 meq/L
PL (9 h): 134 mg/dL
RALB (9 h): 2.9 g/dL
TBIL (9 h): 0.008 mg/dL
TC (9 h): 73 mg/dL
TG (9 h): 77 mg/dL
TP (9 h): 5.5 g/dL
gamma-GTP (9 h): 1.6 IU/L
Bas (24 h, tissue Blood): 0%
Eos (24 h, tissue Blood): 1%
Fbg (24 h, tissue Blood): 327.8 mg/dL
Hb (24 h, tissue Blood): 13.7 g/dL
Ht (24 h, tissue Blood): 40.6%
Lym (24 h, tissue Blood): 77.8%
MCHC (24 h, tissue Blood): 33.6%
MCV (24 h, tissue Blood): 64.8 fL
Mono (24 h, tissue Blood): 3%
Neu (24 h, tissue Blood): 17.2%
PT (24 h, tissue Blood): 16 s
Plat (24 h, tissue Blood): 109.3 x10_4/uL
RBC (24 h, tissue Blood): 627.6 x10_4/ul
Ret (24 h, tissue Blood): 7.6%
WBC (24 h, tissue Blood): 96.3 x10_2/uL
ALP (24 h): 1716.6 IU/L
ALT (24 h): 41.6 IU/L
AST (24 h): 67.2 IU/L
BUN (24 h): 16.2 mg/dL
CRE (24 h): 0.2 mg/dL
Ca (24 h): 10.5 mg/dL
Cl (24 h): 104.6 meq/L
DBIL (24 h): 0.002 mg/dL
GLC (24 h): 192 mg/dL
IP (24 h): 7.6 mg/dL
K (24 h): 4.1 meq/L
LDH (24 h): 155.4 IU/L
Na (24 h): 139.6 meq/L
PL (24 h): 154.2 mg/dL
RALB (24 h): 3.1 g/dL
TBIL (24 h): 0 mg/dL
TC (24 h): 75.2 mg/dL
TG (24 h): 158.4 mg/dL
TP (24 h): 5.6 g/dL
